Data reported in patent US20260315464A1, “COMPOSITIONS, METHODS, AND SYSTEMS FOR MODULATING SPLICING OF MSH3” (REVIR THERAPEUTICS, INC., priority 2023, published 2026).

System: MSH3
Experiment: QPCR assay for levels of MSH3 upon compound treatment in HEK293T or AD293 cells (fold-change of MSH3 transcript, EC50 of MSH3 downregulation; total MSH3 exons 13/14, exons 20/21; Table 8)
Assay type: cell-based
Details: Homo sapiens, fold-change of the MSH3 transcript, normalized to GAPDH; for mrna remaining at 1 µM: 1 μM compound; for mrna remaining at 10 µM: 10 μM compound
Procedure, shortened: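 MSH3 mRNA was quantified by TaqMan qPCR covering exons 13/14, exons 20/21, exon 13/PE14A and exon 20/PE21A, with GAPDH as reference. Cells used were HEK293T or AD293, treated with compound at 1 μM and […].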

Row | Structure (SMILES) | mrna remaining at 1 µM | mrna remaining at 10 µM
1 | Cc1nn(C)nc1-c1cc(Cl)c2c(c1)C(=O)N(c1ccc(N(C)[C@H]3C[C@]4(C)CC[C@](C)(C3)N4)nn1)C2 [Compound 660, 4-chloro-6-(2,5-dimethyl-2H-1,2,3-triazol-4-yl)-2-(6-(((1R,3s,5S)-1,5-dimethyl-8-azabicyclo[3.2.1]octan-3-yl)(methyl)amino)pyridazin-3-yl)isoindolin-1-one] | 101% | 50%
2 | Cc1nn(C)nc1-c1cc(Cl)c2c(c1)C(=O)N(c1ccc(O[C@H]3C[C@]4(C)CC[C@](C)(C3)N4)nn1)C2 [Compound 661, 4-chloro-6-(2,5-dimethyl-2H-1,2,3-triazol-4-yl)-2-(6-(((1R,3s,5S)-1,5-dimethyl-8-azabicyclo[3.2.1]octan-3-yl)oxy)pyridazin-3-yl)isoindolin-1-one] | 155% | 33%
3 | Cc1nn(C)nc1-c1cc(F)c2c(c1)C(=O)N(c1ccc(N3CC4CC(C3)N4)nn1)C2 [Compound 662, 2-(6-(3,6-diazabicyclo[3.1.1]heptan-3-yl)pyridazin-3-yl)-6-(2,5-dimethyl-2H-1,2,3-triazol-4-yl)-4-fluoroisoindolin-1-one] | 191% | 87%
4 | CCN1CC2CN(c3ccc(N4Cc5c(F)cc(-c6nn(C)nc6C)cc5C4=O)nn3)CC2C1 (centres unmarked) [Compound 663, 6-(2,5-dimethyl-2H-1,2,3-triazol-4-yl)-2-(6-(5-ethylhexahydropyrrolo[3,4-c]pyrrol-2(1H)-yl)pyridazin-3-yl)-4-fluoroisoindolin-1-one] | 232% | 62%
5 | Cc1nn(C)nc1-c1cc(Cl)c2c(c1)C(=O)N(c1ccc(OC3CC(C)(C)NC(C)(C)C3)nn1)C2 [Compound 664, 4-chloro-6-(2,5-dimethyl-2H-1,2,3-triazol-4-yl)-2-(6-((2,2,6,6-tetramethylpiperidin-4-yl)oxy)pyridazin-3-yl)isoindolin-1-one] | 94% | 20%
6 | Cc1nn(C)nc1-c1cc(F)c2c(c1)C(=O)N(c1ccc(N3CCN4CCC[C@H]4C3)nn1)C2 [Compound 665, (S)-6-(2,5-dimethyl-2H-1,2,3-triazol-4-yl)-4-fluoro-2-(6-(hexahydropyrrolo[1,2-a]pyrazin-2(1H)-yl)pyridazin-3-yl)isoindolin-1-one] | 92% | 32%
7 | Cc1nn(C)nc1-c1cc(F)c2c(c1)C(=O)N(c1ccc(N3CC4(CNC4)C3)nn1)C2 [Compound 666, 2-(6-(2,6-diazaspiro[3.3]heptan-2-yl)pyridazin-3-yl)-6-(2,5-dimethyl-2H-1,2,3-triazol-4-yl)-4-fluoroisoindolin-1-one] | 97% | 59%
8 | CN(C)C1CCN(c2ccc(N3Cc4c(F)cc(-c5nn(C)nc5Cl)cc4C3=O)nn2)CC1 [Compound 667, 6-(5-chloro-2-methyl-2H-1,2,3-triazol-4-yl)-2-(6-(4-(dimethylamino)piperidin-1-yl)pyridazin-3-yl)-4-fluoroisoindolin-1-one] | 92% | 71%
9 | CC1CCN(c2ccc(N3Cc4c(F)cc(-c5nn(C)nc5Cl)cc4C3=O)nn2)CCN1 (centres unmarked) [Compound 668, 6-(5-chloro-2-methyl-2H-1,2,3-triazol-4-yl)-4-fluoro-2-(6-(5-methyl-1,4-diazepan-1-yl)pyridazin-3-yl)isoindolin-1-one] | 103% | 13%
10 | Cc1nn(C)nc1-c1cc(F)c2c(c1)C(=O)N(c1ccc(N3CCCNCC3)nn1)C2 [Compound 669, 2-(6-(1,4-diazepan-1-yl)pyridazin-3-yl)-6-(2,5-dimethyl-2H-1,2,3-triazol-4-yl)-4-fluoroisoindolin-1-one] | 97% | 42%
11 | Cn1nc(Cl)c(-c2cc(F)c3c(c2)C(=O)N(c2ccc(N4CC5(CNC5)C4)nn2)C3)n1 [Compound 670, 2-(6-(2,6-diazaspiro[3.3]heptan-2-yl)pyridazin-3-yl)-6-(5-chloro-2-methyl-2H-1,2,3-triazol-4-yl)-4-fluoroisoindolin-1-one] | 92% | 44%
12 | Cn1nc(Cl)c(-c2cc(F)c3c(c2)C(=O)N(c2ccc(N4CCN5CCC[C@H]5C4)nn2)C3)n1 [Compound 671, (S)-6-(5-chloro-2-methyl-2H-1,2,3-triazol-4-yl)-4-fluoro-2-(6-(hexahydropyrrolo[1,2-a]pyrazin-2(1H)-yl)pyridazin-3-yl)isoindolin-1-one] | 94% | 47%
13 | Cc1nn(C)nc1-c1cc(F)c2c(c1)C(=O)N(c1ccc(N3CCC(N(C)C)CC3)nn1)C2 [Compound 672, 6-(2,5-dimethyl-2H-1,2,3-triazol-4-yl)-2-(6-(4-(dimethylamino)piperidin-1-yl)pyridazin-3-yl)-4-fluoroisoindolin-1-one] | 95% | 74%
14 | CN(c1ccc(N2Cc3c(F)cc(-n4nccn4)cc3C2=O)nn1)[C@H]1C[C@]2(C)CC[C@](C)(C1)N2 [Compound 673, 2-(6-(((1R,3s,5S)-1,5-dimethyl-8-azabicyclo[3.2.1]octan-3-yl)(methyl)amino)pyridazin-3-yl)-4-fluoro-6-(2H-1,2,3-triazol-2-yl)isoindolin-1-one] | 91% | 33%
15 | Cc1nn(C)nc1-c1cc(F)c2c(c1)C(=O)N(c1ccc(N3C[C@@H](C)NC[C@@H]3C)nn1)C2 [Compound 674, 6-(2,5-dimethyl-2H-1,2,3-triazol-4-yl)-2-(6-((2S,5R)-2,5-dimethylpiperazin-1-yl)pyridazin-3-yl)-4-fluoroisoindolin-1-one] | 98% | 49%
16 | Cc1nn(C)nc1-c1cc(C#N)c2c(c1)C(=O)N(c1ccc(N(C)[C@H]3C[C@]4(C)CC[C@](C)(C3)N4)nn1)C2 [Compound 676, 6-(2,5-dimethyl-2H-1,2,3-triazol-4-yl)-2-(6-(((1R,3s,5S)-1,5-dimethyl-8-azabicyclo[3.2.1]octan-3-yl)(methyl)amino)pyridazin-3-yl)-1-oxoisoindoline-4-carbonitrile] | 48% | 17%
17 | CN(c1ccc(N2Cc3c(Cl)cc(-c4nn(C)nc4Cl)cc3C2=O)nn1)[C@H]1C[C@]2(C)CC[C@](C)(C1)N2 [Compound 679, 4-chloro-6-(5-chloro-2-methyl-2H-1,2,3-triazol-4-yl)-2-(6-(((1R,3s,5S)-1,5-dimethyl-8-azabicyclo[3.2.1]octan-3-yl)(methyl)amino)pyridazin-3-yl)isoindolin-1-one] | 95% | 34%
18 | Cn1nc(Cl)c(-c2cc(C#N)c3c(c2)C(=O)N(c2ccc(OC4CC(C)(C)NC(C)(C)C4)nn2)C3)n1 [Compound 680, 6-(5-chloro-2-methyl-2H-1,2,3-triazol-4-yl)-1-oxo-2-(6-((2,2,6,6-tetramethylpiperidin-4-yl)oxy)pyridazin-3-yl)isoindoline-4-carbonitrile] | 94% | 31%
19 | Cc1nn(C)nc1-c1cc(C#N)c2c(c1)C(=O)N(c1ccc(O[C@H]3C[C@]4(C)CC[C@](C)(C3)N4)nn1)C2 [Compound 681, 6-(2,5-dimethyl-2H-1,2,3-triazol-4-yl)-2-(6-(((1R,3s,5S)-1,5-dimethyl-8-azabicyclo[3.2.1]octan-3-yl)oxy)pyridazin-3-yl)-1-oxoisoindoline-4-carbonitrile] | 76% | 8%
20 | CN(c1ccc(N2Cc3c(C#N)cc(-c4nn(C)nc4Cl)cc3C2=O)nn1)C1CC(C)(C)NC(C)(C)C1 [Compound 682, 6-(5-chloro-2-methyl-2H-1,2,3-triazol-4-yl)-2-(6-(methyl(2,2,6,6-tetramethylpiperidin-4-yl)amino)pyridazin-3-yl)-1-oxoisoindoline-4-carbonitrile] | 77% | 17%
21 | COc1cc(-c2nn(C)nc2C)cc2c1CN(c1ccc(N(C)C3CC(C)(C)NC(C)(C)C3)nn1)C2=O [Compound 683, 6-(2,5-dimethyl-2H-1,2,3-triazol-4-yl)-4-methoxy-2-(6-(methyl(2,2,6,6-tetramethylpiperidin-4-yl)amino)pyridazin-3-yl)isoindolin-1-one] | 138% | 26%
22 | COc1cc(-c2nn(C)nc2Cl)cc2c1CN(c1ccc(O[C@H]3C[C@]4(C)CC[C@](C)(C3)N4)nn1)C2=O [Compound 684, 6-(5-chloro-2-methyl-2H-1,2,3-triazol-4-yl)-2-(6-(((1R,3s,5S)-1,5-dimethyl-8-azabicyclo[3.2.1]octan-3-yl)oxy)pyridazin-3-yl)-4-methoxyisoindolin-1-one] | 133% | 24%
23 | CN(c1ccc(N2Cc3c(C#N)cc(-c4nn(C)nc4Cl)cc3C2=O)nn1)C1C[C@]2(C)CC[C@](C)(C1)N2 (stereo partly drawn) [Compound 685, 6-(5-chloro-2-methyl-2H-1,2,3-triazol-4-yl)-2-(6-(((1R,5S)-1,5-dimethyl-8-azabicyclo[3.2.1]octan-3-yl)(methyl)amino)pyridazin-3-yl)-1-oxoisoindoline-4-carbonitrile] | 24% | 20%
24 | COc1cc(-c2nn(C)nc2Cl)cc2c1CN(c1ccc(N(C)[C@H]3C[C@]4(C)CC[C@](C)(C3)N4)nn1)C2=O [Compound 686, 6-(5-chloro-2-methyl-2H-1,2,3-triazol-4-yl)-2-(6-(((1R,3s,5S)-1,5-dimethyl-8-azabicyclo[3.2.1]octan-3-yl)(methyl)amino)pyridazin-3-yl)-4-methoxyisoindolin-1-one] | 109% | 26%
25 | COc1cc(-c2nn(C)nc2C)cc2c1CN(c1ccc(N(C)[C@H]3C[C@]4(C)CC[C@](C)(C3)N4)nn1)C2=O [Compound 687, 6-(2,5-dimethyl-2H-1,2,3-triazol-4-yl)-2-(6-(((1R,3s,5S)-1,5-dimethyl-8-azabicyclo[3.2.1]octan-3-yl)(methyl)amino)pyridazin-3-yl)-4-methoxyisoindolin-1-one] | 110% | 19%
